Test results taken from patent publication US20030068808A1, “Methods for generating antibiotic resistant microbes and novel antibiotics” (priority 2001, published 2003).

How the values were obtained:
Type in all cases: cell-based
BL21 cells = assay: Half minimum inhibitory concentrations (MIC) on BL21 cells, titration analysis; conditions: half minimum inhibitory concentration on BL21 cells
[1] = tested on: bacterial cells expressing the vector (pT7Ea); assay: Overnight growth in antibiotic, vector control bacteria; conditions: overnight at 37° C., 10^7 cells in 5 ml LB broth plus antibiotic at 0.5X MIC
Protocol: (§1) Titration analysis found the following amounts to be effective in inhibiting bacterial growth in the presence of various compounds.
(§2) The next day, cultures were analyzed for cell growth in the presence or absence of antibiotics.

[2] = tested on: bacterial cells expressing pT7PMS134/V5; assay: Overnight growth in antibiotic, MMR defective bacteria expressing PMS2-134; conditions: overnight at 37° C., 10^7 cells in 5 ml LB broth plus antibiotic at 0.5X MIC
Protocol: as §1, §2

| Structure (SMILES) | 0.5X MIC (BL21 cells) [mg/L] | Cell # (pT7Ea) [1] | Cell # (X10^9) (pT7PMS134V5) [2] |
| --- | --- | --- | --- |
| CCn1cc(C(=O)O)c(=O)c2ccc(C)nc21 [Nalidixic Acid] | 7.10 | 0 | 0.97 X10^9 |
| CCn1cc(C(=O)O)c(=O)c2cc(F)c(N3CCNCC3)cc21 [Norfloxacin] | 0.13 | 0 | 1.40 X10^9 |
| CC1COc2c(N3CCN(C)CC3)c(F)cc3c(=O)c(C(=O)O)cn1c23 (stereo not shown) [Ofloxacin] | 0.13 | 0 | 1.20 X10^9 |
| CN(C)[C@@H]1C(O)=C(C(N)=O)C(=O)[C@@]2(O)C(O)=C3C(=O)c4c(O)cccc4[C@@](C)(O)[C@H]3C[C@@H]12 [Tetracycline] |  | 0 | 1.10 X10^9 |
| CN[C@H](CC(C)C)C(=O)N[C@H]1C(=O)N[C@@H](CC(N)=O)C(=O)N[C@H]2C(=O)N[C@H]3C(=O)N[C@H](C(=O)N[C@H](C(=O)O)c4cc(O)cc(O)c4-c4cc3ccc4O)[C@H](O)c3ccc(c(Cl)c3)Oc3cc2cc(c3O[C@@H]2O[C@H](CO)[C@@H](O)[C@H](O)[C@H]2O[C@H]2C[C@](C)(N)[C@H](O)[C@H](C)O2)Oc2ccc(cc2Cl)[C@H]1O [Vancomycin] | 250.0 | 0 |  |
